# Source: US7968556B2, “Heteroaryl compounds, compositions thereof, and methods of treatment therewith” (Signal Pharmaceuticals, LLC, priority 2006, dated 2011)
row,melting point,Structure (SMILES)
1,275 °C (dec.),"CC(C)c1ccccc1-n1c(=O)[nH]c2c(C(N)=O)nc(-c3ccc4nc[nH]c4c3)nc21 [Compound 127, 2-(1H-Benzo[d]imidazol-6-yl)-9-(2-isopropylphenyl)-8-oxo-8,9-dihydro-7H-purine-6-carboxamide]"
2,331 to 335 °C,"NC(=O)c1nc(-c2cccnc2O)nc2c1[nH]c(=O)n2-c1ccccc1C(F)(F)F [Compound 129, 2-(2-Hydroxypyridin-3-yl)-8-oxo-9-(2-(trifluoromethyl)phenyl)-8,9-dihydro-7H-purine-6-carboxamide]"
3,358 °C (dec.),"COc1ccccc1-n1c(=O)[nH]c2c(C(N)=O)nc(-c3cnc4nc[nH]c4c3)nc21 [Compound 130, 2-(1H-Imidazo[4,5-b]pyridin-6-yl)-9-(2-methoxyphenyl)-8-oxo-8,9-dihydro-7H-purine-6-carboxamide]"
4,320 °C (dec.),"CC(C)c1ccccc1-n1c(=O)[nH]c2c(C(N)=O)nc(-c3cnc4nc[nH]c4c3)nc21 [Compound 135, 2-(1H-Imidazo[4,5-b]pyridin-6-yl)-9-(2-isopropylphenyl)-8-oxo-8,9-dihydro-7H-purine-6-carboxamide]"
5,380 °C (dec.),"CC(C)c1ccccc1-n1c(=O)[nH]c2c(C(N)=O)nc(-c3cnc4[nH]ccc4c3)nc21 [Compound 136, 9-(2-Isopropylphenyl)-8-oxo-2-(1H-pyrrolo[2,3-b]pyridin-5-yl)-8,9-dihydro-7H-purine-6-carboxamide]"
6,310 °C (dec.),"CC(C)c1ccccc1-n1c(=O)[nH]c2c(C(N)=O)nc(-c3ccc4[nH]ccc4c3)nc21 [Compound 139, 2-(1H-Indol-5-yl)-9-(2-isopropylphenyl)-8-oxo-8,9-dihydro-7H-purine-6-carboxamide]"
7,368 to 370 °C,"NC(=O)c1nc(-c2cccc(O)c2)nc2c1[nH]c(=O)n2CC1CCCCC1 [Compound 140, 9-(Cyclohexylmethyl)-2-(3-hydroxyphenyl)-8-oxo-8,9-dihydro-7H-purine-6-carboxamide]"
8,355 to 357 °C,"CO[C@H]1CC[C@H](n2c(=O)[nH]c3c(C(N)=O)nc(-c4cccc(O)c4)nc32)CC1 [Compound 143, 9-(trans-4-Methoxycyclohexyl)-2-(3-hydroxyphenyl)-8-oxo-8,9-dihydro-7H-purine-6-carboxamide]"
9,345 to 347 °C,"CO[C@H]1CC[C@@H](n2c(=O)[nH]c3c(C(N)=O)nc(-c4cccc(O)c4)nc32)CC1 [Compound 144, 9-(cis-4-Methoxycyclohexyl)-2-(3-hydroxyphenyl)-8-oxo-8,9-dihydro-7H-purine-6-carboxamide]"
10,375 °C (dec.),"NC(=O)c1nc(-c2ccc(-c3nc[nH]n3)cc2)nc2c1[nH]c(=O)n2C1CCCCC1 [Compound 146, 2-(4-(1H-1,2,4-Triazol-3-yl)phenyl)-9-cyclohexyl-8-oxo-8,9-dihydro-7H-purine-6-carboxamide]"
11,> 260 °C,"NC(=O)c1nc(-c2cccc(O)c2)nc2c1[nH]c(=O)n2-c1cccc2[nH]ccc12 [Compound 147, 2-(3-Hydroxyphenyl)-9-(1H-indol-4-yl)-8-oxo-8,9-dihydro-7H-purine-6-carboxamide]"
12,> 260 °C,"COc1cccc(-n2c(=O)[nH]c3c(C(N)=O)nc(-c4cccc(O)c4)nc32)c1F [Compound 148, 9-(2-Fluoro-3-methoxyphenyl)-2-(3-hydroxyphenyl)-8-oxo-8,9-dihydro-7H-purine-6-carboxamide]"
13,320 °C (dec.),"NC(=O)c1nc(-c2cnc3nc[nH]c3c2)nc2c1[nH]c(=O)n2C1CCCCC1 [Compound 150, 9-Cyclohexyl-2-(1H-imidazo[4,5-b]pyridin-6-yl)-8-oxo-8,9-dihydro-7H-purine-6-carboxamide]"
14,> 260 °C,"COc1ccc(-n2c(=O)[nH]c3c(C(N)=O)nc(-c4cccc(O)c4)nc32)c(F)c1 [Compound 155, 9-(2-Fluoro-4-methoxyphenyl)-2-(3-hydroxyphenyl)-8-oxo-8,9-dihydro-7H-purine-6-carboxamide]"
15,353 to 355 °C,"NC(=O)c1nc(-c2cccc(O)c2)nc2c1[nH]c(=O)n2[C@@H]1CCOC1 [Compound 162, (R)-2-(3-Hydroxyphenyl)-8-oxo-9-(tetrahydrofuran-3-yl)-8,9-dihydro-7H-purine-6-carboxamide]"
16,345 °C (dec.),"CO[C@H]1CC[C@@H](n2c(=O)[nH]c3c(C(N)=O)nc(-c4ccc5nc[nH]c5c4)nc32)CC1 [Compound 167, 2-(1H-Benzo[d]imidazol-6-yl)-9-(cis-4-methoxycyclohexyl)-8-oxo-8,9-dihydro-7H-purine-6-carboxamide]"
17,360 °C (dec.),"CO[C@H]1CC[C@@H](n2c(=O)[nH]c3c(C(N)=O)nc(-c4cnc5nc[nH]c5c4)nc32)CC1 [Compound 168, 2-(1H-Imidazo[4,5-b]pyridin-6-yl)-9-(cis-4-methoxycyclohexyl)-8-oxo-8,9-dihydro-7H-purine-6-carboxamide]"

# Further lines, the compound ahead of its results:
row,Structure (SMILES),melting point
1,"COc1ccccc1-n1c(=O)[nH]c2c(C(N)=O)nc(-c3cccc4[nH]ncc34)nc21 [Compound 128, 2-(1H-Indazol-4-yl)-9-(2-methoxyphenyl)-8-oxo-8,9-dihydro-7H-purine-6-carboxamide]",280 °C
2,"CC(C)c1ccccc1-n1c(=O)[nH]c2c(C(N)=O)nc(-c3ccc(-n4ccnc4)cc3)nc21 [Compound 131, 2-(4-(1H-Imidazol-1-yl)phenyl)-9-(2-isopropylphenyl)-8-oxo-8,9-dihydro-7H-purine-6-carboxamide]",232 °C
3,"NC(=O)c1nc(-c2cccc(O)c2)nc2c1[nH]c(=O)n2-c1ccccc1C1CCCCC1 [Compound 132, 9-(2-Cyclohexylphenyl)-2-(3-hydroxyphenyl)-8-oxo-8,9-dihydro-7H-purine-6-carboxamide]",> 270 °C
4,"CC(C)c1ccccc1-n1c(=O)[nH]c2c(C(N)=O)nc(-c3ccc(-c4ncc[nH]4)cc3)nc21 [Compound 133, 2-(4-(1H-Imidazol-2-yl)phenyl)-9-(2-isopropylphenyl)-8-oxo-8,9-dihydro-7H-purine-6-carboxamide]",340 °C (dec.)
5,"COc1ccccc1-n1c(=O)[nH]c2c(C(N)=O)nc(-n3cnc4ccccc43)nc21 [Compound 134, 2-(1H-Benzo[d]imidazol-1-yl)-9-(2-methoxyphenyl)-8-oxo-8,9-dihydro-7H-purine-6-carboxamide]",318 to 319 °C
6,"NC(=O)c1nc(-c2cnc3nc[nH]c3c2)nc2c1[nH]c(=O)n2-c1ccccc1C(F)(F)F [Compound 137, 2-(1H-Imidazo[4,5-b]pyridin-6-yl)-8-oxo-9-(2-(trifluoromethyl)phenyl)-8,9-dihydro-7H-purine-6-carboxamide]",320 °C
7,"COc1ccccc1-n1c(=O)[nH]c2c(C(N)=O)nc(-c3ccc4[nH]c(SC)nc4c3)nc21 [Compound 138, 9-(2-Methoxyphenyl)-2-(2-(methylthio)-1H-benzo[d]imidazol-5-yl)-8-oxo-8,9-dihydro-7H-purine-6-carboxamide]",244 to 245 °C
8,"NC(=O)c1nc(-c2cccc(O)c2)nc2c1[nH]c(=O)n2C1CCc2ccccc21 (stereo not shown) [Compound 141, 9-(2,3-Dihydro-1H-inden-1-yl)-2-(3-hydroxyphenyl)-8-oxo-8,9-dihydro-7H-purine-6-carboxamide]",341 to 343 °C
9,"CC(C)Cn1c(=O)[nH]c2c(C(N)=O)nc(-c3cccc(O)c3)nc21 [Compound 142, 2-(3-Hydroxyphenyl)-9-isobutyl-8-oxo-8,9-dihydro-7H-purine-6-carboxamide]",374 to 376 °C
10,"NC(=O)c1nc(-c2cccc(O)c2)nc2c1[nH]c(=O)n2-c1cccc2c1CCCC2 [Compound 145, 2-(3-Hydroxyphenyl)-8-oxo-9-(5,6,7,8-tetrahydronaphthalen-1-yl)-8,9-dihydro-7H-purine-6-carboxamide]",> 250 °C
11,"COc1ccc(F)c(-n2c(=O)[nH]c3c(C(N)=O)nc(-c4cccc(O)c4)nc32)c1 [Compound 149, 9-(2-Fluoro-5-methoxyphenyl)-2-(3-hydroxyphenyl)-8-oxo-8,9-dihydro-7H-purine-6-carboxamide]",> 260 °C
12,"NC(=O)c1nc(-c2cccc(O)c2)nc2c1[nH]c(=O)n2C1CCOCC1 [Compound 151, 2-(3-Hydroxyphenyl)-8-oxo-9-(tetrahydro-2H-pyran-4-yl)-8,9-dihydro-7H-purine-6-carboxamide]",361 to 363 °C
13,"NC(=O)c1nc(-c2cccc(O)c2)nc2c1[nH]c(=O)n2-c1ccccc1C1CCCC1 [Compound 153, 9-(2-Cyclopentylphenyl)-2-(3-hydroxyphenyl)-8-oxo-8,9-dihydro-7H-purine-6-carboxamide]",> 260 °C
14,"NC(=O)c1nc(-c2ccc3nc[nH]c3c2)nc2c1[nH]c(=O)n2C1CCCCC1 [Compound 156, 2-(1H-benzo[d]imidazol-6-yl)-9-cyclohexyl-8-oxo-8,9-dihydro-7H-purine-6-carboxamide]",280 °C (dec.)
15,"COC[C@H]1CC[C@@H](n2c(=O)[nH]c3c(C(N)=O)nc(-c4cccc(O)c4)nc32)CC1 [Compound 159, 2-(3-Hydroxyphenyl)-9-(cis-4-(methoxymethyl)cyclohexyl)-8-oxo-8,9-dihydro-7H-purine-6-carboxamide]",324 to 326 °C
16,"CC(C)Cc1ccccc1-n1c(=O)[nH]c2c(C(N)=O)nc(-c3cccc(O)c3)nc21 [Compound 161, 2-(3-Hydroxyphenyl)-9-(2-isobutylphenyl)-8-oxo-8,9-dihydro-7H-purine-6-carboxamide]",> 260 °C
17,"NC(=O)c1nc(-c2cccc(O)c2)nc2c1[nH]c(=O)n2[C@H]1CCOC1 [Compound 163, (S)-2-(3-Hydroxyphenyl)-8-oxo-9-(tetrahydrofuran-3-yl)-8,9-dihydro-7H-purine-6-carboxamide]",354 to 356 °C
